Data on 25 molecules can be found in patent US8163740B2, “6-substituted benzoxazines” (Hoffmann-La Roche Inc., priority 2008, dated 2012).

The structures appear in SMILES notation.

Sequence of recombinant human 5-HT5A receptor (P47898 whole entry): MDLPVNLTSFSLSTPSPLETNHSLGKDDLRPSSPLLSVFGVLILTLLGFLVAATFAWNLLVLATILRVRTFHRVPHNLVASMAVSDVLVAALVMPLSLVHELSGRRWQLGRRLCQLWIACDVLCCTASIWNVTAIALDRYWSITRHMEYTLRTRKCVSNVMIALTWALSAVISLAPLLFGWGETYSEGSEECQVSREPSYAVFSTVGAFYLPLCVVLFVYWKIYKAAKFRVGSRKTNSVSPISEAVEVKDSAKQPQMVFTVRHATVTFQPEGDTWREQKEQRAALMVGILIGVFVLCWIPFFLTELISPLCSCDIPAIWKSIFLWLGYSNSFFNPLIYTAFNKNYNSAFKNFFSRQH

For this experiment, the target named is recombinant human 5-HT5A receptor (Homo sapiens, UniProt P47898). The experiment in a line: [3H]LSD radioligand binding assay. The following applies: [3H]LSD (approximately 1 nM); membranes from HEK-EBNA cells transiently expressing 5-HT5A; Ki by Cheng-Prussoff equation; read-out: Ki. The procedure:
A [^3H]LSD radioligand binding assay was used to determine the affinity of the compounds for the recombinant human 5-HT5A receptor, in membranes from transiently (cDNA) expressed 5-HT5A receptors in Human Embryonic Kidney-EBNA (HEK-EBNA) cells. Assay buffer consisted of Tris (50 mM) buffer containing 1 mM EGTA, 10 mM MgCl2 (pH 7.4) and 10 μM pargyline. The binding assay was carried out in 96-well-plates in the presence of [^3H]LSD (approximately 1 nM), approximately 2 μg/well of membrane protein, and 0.5 mg of Ysi-poly-1-lysine SPA beads in a final volume of 200 μl of buffer. Non-specific binding was defined using methiothepin 2 μM. Compounds were tested at 10 concentrations. All assays were conducted in duplicate and repeated at least two times. Assay plates were incubated for 120 min at room temperature before centrifugation. Bound ligand was determined using a Packard Topcount scintillation counter. IC50 values were calculated using a non-linear curve fitting program and Ki values calculated using the Cheng-Prussoff equation.
With `COc1cccc2c1C(NC1=Nc3ccc(NC(C)=O)cc3CO1)CO2` (racemic) [Example 51, rac-N-[2-(4-Methoxy-2,3-dihydro-benzofuran-3-ylamino)-4H-benzo[d][1,3]oxazin-6-yl]-acetamide], the Ki stood at 23.7 nM. For the molecule `COc1cccc2c1C(NC1=Nc3ccc(NC(C)=O)cc3CO1)CC2` (racemic) [Example 52, rac-N-[2-(7-Methoxy-indan-1-ylamino)-4H-benzo[d][1,3]oxazin-6-yl]-acetamide], the inhibition constant Ki is 4.98 nM. As for `Fc1ccc2c(c1)CCC2NC1=Nc2ccc(Br)cc2CO1` (racemic) [Example 53, rac-(6-Bromo-4H-benzo[d][1,3]oxazin-2-yl)-(5-fluoro-indan-1-yl)-amine], the figure is 43.6 nM. As for `COc1cccc2c1C(NC1=Nc3ccc(NC(=O)CN4CCOCC4)cc3CO1)CC2` (racemic) [Example 55, rac-N-[2-(7-Methoxy-indan-1-ylamino)-4H-benzo[d][1,3]oxazin-6-yl]-2-morpholin-4-yl-acetamide], the figure is 10.3 nM; as for `O=C(CN1CCOCC1)Nc1ccc2c(c1)COC(NC1CCc3cc(F)ccc31)=N2` (racemic) [Example 56, rac-N-[2-(5-Fluoro-indan-1-ylamino)-4H-benzo[d][1,3]oxazin-6-yl]-2-morpholin-4-yl-acetamide], 13 nM; as for `Fc1ccc2c(c1)CCC2NC1=Nc2ccc(Nc3cccc(C(F)(F)F)n3)cc2CO1` (racemic) [Example 57, rac-N^2-(5-Fluoro-indan-1-yl)-N^6-(6-trifluoromethyl-pyridin-2-yl)-4H-benzo[d][1,3]oxazine-2,6-diamine], 6.06 nM. As for `Fc1ccc2c(c1)CCC2NC1=Nc2ccc(Nc3nccc(C(F)(F)F)n3)cc2CO1` (racemic) [Example 58, rac-N^2-(5-Fluoro-indan-1-yl)-N^6-(4-trifluoromethyl-pyrimidin-2-yl)-4H-benzo[d][1,3]oxazine-2,6-diamine], the figure is 6.8 nM; as for `COc1cccc2c1C(NC1=Nc3ccc(Nc4cccc(C(F)(F)F)n4)cc3CO1)CO2` (racemic) [Example 59, rac-N^2-(4-Methoxy-2,3-dihydro-benzofuran-3-yl)-N^6-(6-trifluoromethyl-pyridin-2-yl)-4H-benzo[d][1,3]oxazine-2,6-diamine], 7.82 nM; as for `COc1cccc2c1C(NC1=Nc3ccc(Nc4nccc(C(F)(F)F)n4)cc3CO1)CO2` (racemic) [Example 60, rac-N^2-(4-Methoxy-2,3-dihydro-benzofuran-3-yl)-N^6-(4-trifluoromethyl-pyrimidin-2-yl)-4H-benzo[d][1,3]oxazine-2,6-diamine], 12.5 nM. Consider `COc1cccc2c1C(NC1=Nc3ccc(NS(=O)(=O)N(C)C)cc3CO1)CC2` (racemic) [Example 61, rac-N,N-(Dimethyl)-N′-{2-(7-Methoxy-indan-1-ylamino)-4H-benzo[d][1,3]oxazin-6-yl}-sulfamide], for which the inhibition constant Ki worked out at 2.6 nM. The value for `COc1cccc2c1C(NC1=Nc3ccc(NS(=O)(=O)N4CCCCC4)cc3CO1)CC2` (racemic) [Example 62, rac-Piperidine-1-sulfonic acid [2-(7-methoxy-indan-1-ylamino)-4H-benzo[d][1,3]oxazin-6-yl]-amide] was 3.26 nM; that for `COc1cccc2c1C(NC1=Nc3ccc(NS(=O)(=O)N4CCOCC4)cc3CO1)CC2` (racemic) [Example 63, rac-Morpholine-4-sulfonic acid [2-(7-methoxy-indan-1-ylamino)-4H-benzo[d][1,3]oxazin-6-yl]-amide] was 3.32 nM. `CN(C)S(=O)(=O)Nc1ccc2c(c1)COC(NC1CCc3cc(F)ccc31)=N2` (racemic) [Example 64, rac-N,N-(Dimethyl)-N′-{2-(5-Fluoro-indan-1-ylamino)-4H-benzo[d][1,3]oxazin-6-yl}-sulfamide]: the Ki was 4.08 nM.

Take `Nc1ccc2c(c1)COC(NC1CCOc3ccccc31)=N2` (racemic) [Example 75, rac-N^2-Chroman-4-yl-4H-benzo[d][1,3]oxazine-2,6-diamine]: the Ki was 16.3 nM. As for `COc1cccc2c1C(NC1=Nc3ccc(Nc4cccc(C(F)(F)F)n4)cc3CO1)CC2` (racemic) [Example 80, rac-N^2-(7-Methoxy-indan-1-yl)-N^6-(6-trifluoromethyl-pyridin-2-yl)-4H-benzo[d][1,3]oxazine-2,6-diamine], the Ki turned out to be 4.26 nM.

For the molecule `COc1cccc2c1C(NC1=Nc3ccc(Nc4nccc(C(F)(F)F)n4)cc3CO1)CC2` (racemic) [Example 81, rac-N^2-(7-Methoxy-indan-1-yl)-N^6-(4-trifluoromethyl-pyrimidin-2-yl)-4H-benzo[d][1,3]oxazine-2,6-diamine], the inhibitory constant (Ki) came out at 7.16 nM. The value for `COc1cccc2c1C(NC1=Nc3ccc(NC(=O)CN4CCN(C)CC4)cc3CO1)CC2` (racemic) [Example 86, rac-N-[2-(7-Methoxy-indan-1-ylamino)-4H-benzo[d][1,3]oxazin-6-yl]-2-(4-methyl-piperazin-1-yl)-acetamide] was 1.43 nM.

With `O=C(Nc1ccc2c(c1)COC(NC1CCOc3ccccc31)=N2)C1CC1` (racemic) [Example 90, rac-Cyclopropanecarboxylic acid [2-(chroman-4-ylamino)-4H-benzo[d][1,3]oxazin-6-yl]-amide], the Ki was 8.28 nM.

For the molecule `CN(C)S(=O)(=O)Nc1ccc2c(c1)COC(NC1CCOc3ccccc31)=N2` (racemic) [Example 91, rac-N,N-(Dimethyl)-N′-{2-(chroman-4-ylamino)-4H-benzo[d][1,3]oxazin-6-yl}-sulfamide], the inhibition constant (Ki) amounted to 52.5 nM. The value for `COc1cccc2c1C(NC1=Nc3ccc(NS(C)(=O)=O)cc3CO1)CC2` (racemic) [Example 102, rac-N-[2-(7-Methoxy-indan-1-ylamino)-4H-benzo[d][1,3]oxazin-6-yl]-methanesulfonamide] was 8.36 nM; that for `COc1cccc2c1C(NC1=Nc3ccc(NS(=O)(=O)C4CC4)cc3CO1)CC2` (racemic) [Example 103, rac-Cyclopropanesulfonic acid [2-(7-methoxy-indan-1-ylamino)-4H-benzo[d][1,3]oxazin-6-yl]-amide] was 2.82 nM. Consider `COc1cccc2c1C(NC1=Nc3ccc(NS(=O)(=O)c4ccccc4)cc3CO1)CC2` (racemic) [Example 104, rac-N-[2-(7-Methoxy-indan-1-ylamino)-4H-benzo[d][1,3]oxazin-6-yl]-benzenesulfonamide], for which the Ki is 8.68 nM.

Regarding `COc1cccc2c1C(NC1=Nc3ccc(Nc4nnn(C(C)(C)C)n4)cc3CO1)CC2` (racemic) [Example 112, rac-N^6-(2-tert-Butyl-2H-tetrazol-5-yl)-N^2-(7-methoxy-indan-1-yl)-4H-benzo[d][1,3]oxazine-2,6-diamine], the Ki stood at 4.56 nM. With `COc1cccc2c1C(NC1=Nc3ccc(NS(=O)(=O)C4CC4)cc3CO1)CO2` (racemic) [Example 113, rac-Cyclopropanesulfonic acid [2-(4-methoxy-2,3-dihydro-benzofuran-3-ylamino)-4H-benzo[d][1,3]oxazin-6-yl]-amide], the Ki came to 12.6 nM. The value for `COc1cccc2c1C(NC1=Nc3ccc(NS(C)(=O)=O)cc3CO1)CO2` (racemic) [Example 114, rac-N-[2-(4-Methoxy-2,3-dihydro-benzofuran-3-ylamino)-4H-benzo[d][1,3]oxazin-6-yl]-methanesulfonamide] was 30.4 nM.

What is called Ki is the equilibrium dissociation constant of an inhibitor or competing ligand from its target.
